The target of one data set is T1, TRPV1 protein (Mus musculus, UniProt Q704Y3).
T1 construct: endogenous in cells; host or cells: 4T1 cells
Kind of data set: Calcium regulation ability at the cellular level, Fluo-8 AM staining, confocal microscopy. Format: cell-based. The settings on record: 4T1 cells. As to the method:
The specific operations were as follows.
A high-glucose DMEM cell culture medium containing 10% fetal bovine serum and 5% double antibodies (the following media all contained 10% fetal bovine serum and 5% double antibodies) was prepared. Triple negative breast cancer 4T1 cells in logarithmic growth phase were seeded in a Confocal cell culture dish at a density of 1.0×10^4 cells/well, and incubated in a cell incubator (37° C., 5% CO2) for 12 hrs. […] The cells were incubated in an incubator for another 12 hrs, and the culture medium was changed after incubation. The irradiation group was irradiated with LED light (660 nm, 20 mW cm^−2) for 15 min (without treatment in the non-irradiation group). After irradiation, the culture medium was discarded. The cells were rinsed three times with PBS, and the rinsed cells were stained (10 min) with a fluorescent dye Fluo-8 AM (50.0 μmol L^−1, 1.0 mL) for intracellular calcium. After staining, the cells were rinsed with PBS, and observed by laser confocal microscopy.

The conditions of data set [1]: reference value used for calculation; cited from earlier work.

T1 sequence (Q704Y3 whole entry): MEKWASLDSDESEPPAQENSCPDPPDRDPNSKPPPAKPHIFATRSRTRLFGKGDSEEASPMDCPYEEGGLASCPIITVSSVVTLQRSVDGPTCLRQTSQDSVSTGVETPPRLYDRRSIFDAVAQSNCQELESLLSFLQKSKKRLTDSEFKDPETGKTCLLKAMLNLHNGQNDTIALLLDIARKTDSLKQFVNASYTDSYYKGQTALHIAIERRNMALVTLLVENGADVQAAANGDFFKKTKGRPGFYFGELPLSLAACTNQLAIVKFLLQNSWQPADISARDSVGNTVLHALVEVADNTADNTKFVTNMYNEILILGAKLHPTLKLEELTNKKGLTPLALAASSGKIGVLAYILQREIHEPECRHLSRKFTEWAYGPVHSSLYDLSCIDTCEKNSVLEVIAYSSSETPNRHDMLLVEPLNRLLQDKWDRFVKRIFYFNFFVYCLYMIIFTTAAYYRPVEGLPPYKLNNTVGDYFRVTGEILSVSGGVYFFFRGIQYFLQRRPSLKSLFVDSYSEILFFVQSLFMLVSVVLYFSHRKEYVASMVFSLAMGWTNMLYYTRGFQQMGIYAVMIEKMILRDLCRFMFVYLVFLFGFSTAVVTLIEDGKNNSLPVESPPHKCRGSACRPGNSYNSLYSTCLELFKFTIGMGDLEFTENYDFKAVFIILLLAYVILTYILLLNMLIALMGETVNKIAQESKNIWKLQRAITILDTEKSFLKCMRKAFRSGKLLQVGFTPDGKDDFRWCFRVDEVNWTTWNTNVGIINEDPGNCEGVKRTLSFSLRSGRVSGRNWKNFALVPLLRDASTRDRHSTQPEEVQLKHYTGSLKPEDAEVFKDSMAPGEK

Regarding `COc1cc(CNC(=O)CCCC/C=C/C(C)C)ccc1O` [CAP, capsaicin], the “change of intracellular calcium fluorescence intensity after irradiation versus before irradiation” value on TRPV1 protein (LED 660 nm, 20 mW cm^−2, 15 min) is given as “does not change obviously”. Moreover, the “intracellular calcium fluorescence under non-irradiation and irradiation conditions” value on TRPV1 protein (compared with PBS and BDP groups) was “intense green fluorescence”.
Turning to `[Zn+2].c1ccc2c(c1)-c1nc-2nc2[n-]c(nc3nc([n-]c4nc(n1)-c1ccccc1-4)-c1ccccc1-3)c1ccccc21` [ZnPc, Zinc phthalocyanine], the “singlet oxygen quantum yield of the reference” value in data set [1] is reported as 1.

Source of the values: patent US20230414758A1, “CAPSAICIN-DERIVED PHOTOSENSITIZER, AND PREPARATION METHOD AND USE THEREOF” (priority 2022, published 2023).
